Assay [1] addresses T1, A2B adenosine receptor (A2BAR) (Homo sapiens, UniProt P29275).
T1 construct: gene ADORA2B
T1 sequence (P29275 1-332): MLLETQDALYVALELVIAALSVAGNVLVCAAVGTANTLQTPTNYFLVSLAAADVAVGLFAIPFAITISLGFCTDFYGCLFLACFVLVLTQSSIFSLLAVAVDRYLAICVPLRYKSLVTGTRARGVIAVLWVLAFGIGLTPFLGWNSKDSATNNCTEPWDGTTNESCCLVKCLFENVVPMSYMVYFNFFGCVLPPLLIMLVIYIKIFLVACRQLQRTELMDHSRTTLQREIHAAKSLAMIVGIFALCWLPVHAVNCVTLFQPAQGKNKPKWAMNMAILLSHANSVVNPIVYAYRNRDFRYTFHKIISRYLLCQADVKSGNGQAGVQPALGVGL
The assay can be described thus: agonist-induced cAMP production (AlphaLISA) in A549 cells with endogenous receptor; effect reversed by MRS […]. It counts as cell-based. For orientation: Changes in cAMP serve as a functional read-out for many G protein-coupled receptors.

For assay [2], the target named is T1, A2B adenosine receptor (A2BAR). As to the kind of experiment: reversal at […] of BAY […]-6583-induced cAMP and ERK1/[…] phosphorylation in A549 cells. Format: cell-based.

As for `N#Cc1c(N)nc(SCC(N)=O)c(C#N)c1-c1ccc(OCC2CC2)cc1` [BAY 60-6583, 2-[6-amino-3,5-dicyano-4-[4-(cyclopropylmethoxy)phenyl]pyridin-2-ylsulfanyl] acetamide], in assay [1], the EC50 (usually the concentration at which the effect is half-maximal) stood at 17.2 ± 2.5 nM. Take `CCCn1c(=O)c2[nH]c(-c3ccc(OCC(=O)Nc4ccc(C(C)=O)cc4)cc3)nc2n(CCC)c1=O` [MRS1706, N-(4-acetylphenyl)-2-[4-(2,3,6,7-tetrahydro-2,6-dioxo-1,3-dipropyl-1H-purin-8-yl)phenoxy]-acetamide]: the “reversal at 1 μM of BAY 60-6583-induced cAMP and ERK1/2 phosphorylation in A549” value in assay [2] was “The effects evoked by A2BAR stimulation were almost completely reversed by the A2BAR inverse agonist MRS1706”.

These data come from article PMC5797802, “The A2B Adenosine Receptor Modulates the Epithelial– Mesenchymal Transition through the Balance of cAMP/PKA and MAPK/ERK Pathway Activation in Human Epithelial Lung Cells” (Frontiers in Pharmacology, 2018).
